According to the NIST ThermoML archive (doi:10.1021/je400218d):
Numbers after ± are expanded uncertainties.

Conditions: 298.15 K; 101.33 kPa; Crystal; Pycnometric method

`CC1=C(C(=O)O)N2C(=O)[C@@H](NC(=O)[C@H](N)C3=CCC=CC3)[C@H]2SC1` [Cefradin] gave a molar volume of 0.000268 ± 1.6e-05 m3/mol.
